Results taken from US20220373437A1, “SYSTEM FOR EVALUATING CHEMO-PREVENTIVE POTENTIAL OF PHC AND ITS PREPARED CHITOSAN NANOPARTICLES” (priority 2022, published 2022).

Legend:
Format in all cases: in vivo, Wistar rats
[1] = test system: DEN induced hepatocellular carcinoma; assay: Macroscopic hepatic nodule incidence in DEN + CCl4 induced HCC rats; conditions: DEN 200 mg/kg i.p. + weekly CCl4 s.c., 16 weeks, HCC control group 6-7 nodules, normal control none
Procedure: (§1) In an embodiment, an injection 106 is used for inducing Hepatocellular Carcinoma (HCC), wherein for the induction of HCC, rats administered single intraperitoneal injection of DEN (200 mg/kg body weight) followed by weekly subcutaneous injections of carbon tetrachloride (3 ml/kg body weight) for 6 weeks, wherein the rats are divided into eight groups, from which group 1 is served as normal control, and group 2-8 are given single dose of DEN and repeated dose of CCl4 till the completion of the experimental duration of 16 weeks, wherein freshly prepared solution of DEN in normal saline is used for the induction of HCC in rats by administering 200 mg/kg, i.p., PHC (2:1:1) is dispersed in normal saline suspension to administer at doses of 900 mg/kg, p.o and 1935 mg/kg p.o. Soranib (Sorafenib 200 mg) tablets are powdered and dissolve in normal saline solution and the freshly prepared solution is used as standard drug.
In another embodiment, all the rats are allowed to consume commercial pellet diet during the course of the study, wherein eight groups of rat are differentiated into six groups consisting of eight rats and two groups consisting of twelve rats.
In one embodiment, a refrigerator 124 is coupled to the treatment unit 110 for storing the tissues at −20° C. and observing the presence of nodules using the UV spectrophotometer 114. […]

[2] = test system: DEN induced hepatocellular carcinoma; assay: Lipid peroxidation (MDA) in liver tissue homogenates of DEN + CCl4 induced HCC rats; conditions: vs HCC group
Procedure: as §1
In one embodiment, a tissue homogenizer 120 is coupled to the treatment unit 110 for preparing ten percentage homogenates of liver tissue. […]
FIG. 7 illustrates effect on lipid peroxidation (LPO) in control and experimental groups in accordance with an embodiment of the present disclosure. All values are expressed as mean±Standard deviation (SD) (n=6) except n=5 in Plant ‘c’ group. […]
Malondialdehyde (MDA), an end product of LPO is assessed in the tumor tissues homogenates. […]

[3] = test system: DEN induced hepatocellular carcinoma; assay: Total bilirubin, total protein, albumin, globulin and A/G ratio in DEN + CCl4 induced HCC rats; conditions: ANOVA followed by Dunnett's t-test vs HCC group
Procedure: as §1
(§2) In an embodiment, a collection unit 108 is used for collecting serum and tissue samples after anesthetizing overnight fasted rats using intraperitoneal administration of thiopentone sodium at a dose of 40 mg/kg, wherein the blood sample is collected by retro-orbital plexus followed by cardiac puncture.
In another embodiment, the treatment unit 110 comprises a centrifuge 116 for centrifugating the collected sample of blood at 3000 rpm for 10 minutes to separate the serum, which is kept at −20° C. until further analysis.
In another embodiment, the live markers are selected from a group comprising Alanine Aminotransaminase (ALT)/Serum Glutamate Pyruvate Transaminase (SGPT), Aspartate Aminotransaminase (AST)/Serum Glutamate Oxaloacetate Transaminase (SGOT), Alkaline Phosphatase (ALP), Lactate dehydrogenase (LDH), total protein, albumin, globulin and total bilirubin.
FIG. 6 illustrates effect on total bilirubin, total protein, albumin and globulin in control and experimental groups in accordance with an embodiment of the present disclosure. All values are expressed as mean±Standard deviation (SD) (n=6) except n=5 in Plant ‘c’ group. Statistical analysis is done using One way Analysis of Variance (ANOVA) followed by Dunnett's t-test using GraphPad Prism Version 8.0.1. Where, HCC is compared with NC group while the treatment groups (Plant ‘a’, Plant ‘b’, Plant ‘c’, PHC (2:1:1), CNP-EL and STD) are compared with HCC group. ^#P<0.0001 is very highly significant when compared with NC, ^aP<0.0001 is very highly significant, ^bP<0.001 is highly significant, ^cP<0.01 is very significant, ^dP<0.05 is significant and ns=not significant when compared with HCC group. Where NC is normal control group; HCC is hepatocellular carcinoma group; Plant ‘a’ group is Berberis aristata treated group; Plant ‘b’ group is Andrographis paniculata treated group; Plant ‘c’ group is Thevetia peruviana treated group; PHC (2:1:1) group is Polyherbal combination of 2:1:1 treated group; CNP-EL group is Chitosan nanoparticles of PHC (2:1:1) treated group and STD group is Standard Sorafenib treated group. Unit: Bilirubin: mg/dl, Total protein, Albumin and globulin: gm/dl.

[4] = test system: DEN induced hepatocellular carcinoma; assay: Liver histopathology (H and E stained sections) in DEN + CCl4 induced HCC rats; conditions: 16 weeks
Procedure: as §1, §2
In one embodiment, a micropipette 122 is coupled to the treatment unit 110 for pouring formalin solution for histopathological examination. […]

CNC(=O)c1cc(Oc2ccc(NC(=O)Nc3ccc(Cl)c(C(F)(F)F)c3)cc2)ccn1 [STD, Sorafenib]
number of macroscopically visible hepatic nodules [1]: 0-1
levels of MDA (lipid peroxidation), change compared to HCC group [2]: very highly significant (^aP<0.0001) decreased
A/G ratio, change compared to HCC group [3]: very highly significant (^aP<0.0001) increased
level of albumin, change compared to HCC group [3]: very highly significant (^aP<0.0001) increased
level of globulin, change compared to HCC group [3]: very highly significant (^aP<0.0001) increased
level of total bilirubin, change compared to HCC group [3]: very highly significantly (^aP<0.0001) decreased
level of total protein, change compared to HCC group [3]: very highly significant (^aP<0.0001) increased
histopathology of H and E stained section of liver (40×) [4]: hepatic tissue with cytoplasm, less necrosis of cell, altered hepatocytes and hepatocellular architecture
